One data set has as its system Streptococcus pneumoniae. The data set is described as follows: Antibacterial activity against Streptococcus pneumoniae ARC548. Type of data set: functional.
Data set [1] deals with Staphylococcus aureus. In words: Antibacterial activity against methicillin-sensitive Staphylococcus aureus. Type of data set: functional.
Data set [2] can be described thus: Inhibition of Streptococcus pneumoniae DNA Topoisomerase 4 subunit ParE.
Data set [3] can be described thus: Lipophilicity, log D of the compound. Particulars: octanol/water.
Data set [4] has as its system Staphylococcus aureus. In words: Antibacterial activity against methicillin-, quinolone-resistant Staphylococcus aureus. It counts as functional.
The target of the next data set is DNA gyrase subunit B (Staphylococcus aureus, UniProt P0A0K8). The data set is described as follows: Inhibition of Staphylococcus aureus DNA gyrase B expressed in Escherichia coli BL21(DE3) cells assessed ATP hydrolysis activity […] by malachite green reagent assay.
Data set [5] can be described thus: Ratio of IC50 for Staphylococcus aureus DNA gyrase B to IC50 for Streptococcus pneumoniae Topoisomerase ParE.

In brackets after ≈: the same amount, converted by molar mass.

Sequence of DNA gyrase subunit B (P0A0K8 whole entry): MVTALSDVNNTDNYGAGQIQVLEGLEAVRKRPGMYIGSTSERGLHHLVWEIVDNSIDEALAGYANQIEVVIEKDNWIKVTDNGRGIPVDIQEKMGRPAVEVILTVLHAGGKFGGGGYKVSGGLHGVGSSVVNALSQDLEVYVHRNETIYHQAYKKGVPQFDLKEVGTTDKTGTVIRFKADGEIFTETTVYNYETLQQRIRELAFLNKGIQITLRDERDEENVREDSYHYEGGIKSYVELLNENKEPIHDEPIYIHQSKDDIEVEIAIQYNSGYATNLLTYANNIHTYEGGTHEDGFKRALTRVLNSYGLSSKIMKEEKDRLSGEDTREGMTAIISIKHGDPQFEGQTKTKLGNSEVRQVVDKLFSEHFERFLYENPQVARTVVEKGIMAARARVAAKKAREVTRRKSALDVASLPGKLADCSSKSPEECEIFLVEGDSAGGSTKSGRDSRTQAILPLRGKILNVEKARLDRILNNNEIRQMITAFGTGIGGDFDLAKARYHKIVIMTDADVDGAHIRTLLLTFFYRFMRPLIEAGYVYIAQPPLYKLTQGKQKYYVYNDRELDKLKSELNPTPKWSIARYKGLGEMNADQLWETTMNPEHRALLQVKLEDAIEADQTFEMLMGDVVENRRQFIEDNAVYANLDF

With `CCNC(=O)c1cc2c(-n3ccc(C(F)(F)F)n3)c(-c3cncc(-c4n[nH]c(=O)o4)c3)cnc2[nH]1`, the MIC with Streptococcus pneumoniae was less than 0.03 µM; in the data set on Staphylococcus aureus [1], 0.4 µM (≈ 0.194 µg/mL); in the data set with Staphylococcus aureus [4], 1.1 µM (≈ 0.533 µg/mL). Besides, the IC50 in data set [2] was 3 nM; against DNA gyrase subunit B it was less than 1 nM. For the same compound, the logD in data set [3] was found to be 1.65.

For `CO[C@@H]1[C@@H](OC(N)=O)[C@@H](O)[C@H](Oc2ccc3c(O)c(NC(=O)c4ccc(O)c(CC=C(C)C)c4)c(=O)oc3c2C)OC1(C)C` [NOVOBIOCIN], the figures for the minimal inhibitory concentration (MIC) against Streptococcus pneumoniae, with Staphylococcus aureus [1] and against Staphylococcus aureus [4] were 0.78 µM (≈ 0.478 µg/mL), 0.39 µM (≈ 0.239 µg/mL) and 0.39 µM (≈ 0.239 µg/mL), respectively.

On to `CCNC(=O)c1cc2c(-n3ccc(C(F)(F)F)n3)c(-c3cncc(C#N)c3)cnc2[nH]1`, for which the MIC amounted to 0.2 µM (≈ 0.0851 µg/mL) against Streptococcus pneumoniae, 3.13 µM (≈ 1.33 µg/mL) against Staphylococcus aureus [1] and 1.56 µM (≈ 0.664 µg/mL) against Staphylococcus aureus [4]. For the same compound, the IC50 in data set [2] came to 10 nM; against DNA gyrase subunit B, 23 nM. In data set [3], the logD came out at 2.62.

Regarding `O=C(O)/C=C/c1cccc(-c2cnc3[nH]ccc3c2)c1`, the figures for the minimum inhibitory concentration (MIC) in the data set on Streptococcus pneumoniae and against Staphylococcus aureus [1] were 200 µM (≈ 52.9 µg/mL) and greater than 200 µM, respectively. The compound further displayed a logD in data set [3] of 0.58.

On to `CCNC(=O)c1cc2c(-n3ccc(C(F)(F)F)n3)c(-c3cncc(C(=O)NC)c3)cnc2[nH]1`, for which the MIC against Streptococcus pneumoniae stood at 0.098 µM (≈ 0.0448 µg/mL); against Staphylococcus aureus [1], 6.25 µM (≈ 2.86 µg/mL); against Staphylococcus aureus [4] it was 12.5 µM (≈ 5.72 µg/mL). The IC50 in data set [2] was found to be 16 nM; at DNA gyrase subunit B, 11 nM. Further, in data set [3], the logD came out at 2.21.

Consider `CCNC(=O)c1cc2c(-n3ccc(C(F)(F)F)n3)c(-c3cnc(OC)c(-c4n[nH]c(=O)o4)c3)cnc2[nH]1`, for which the values for the MIC in the data set with Streptococcus pneumoniae, in the data set with Staphylococcus aureus [1] and against Staphylococcus aureus [4] were less than 0.03 µM, 0.78 µM (≈ 0.401 µg/mL) and 1.56 µM (≈ 0.803 µg/mL), respectively. The half-maximal inhibitory concentration (IC50) in data set [2] was found to be 3 nM; against DNA gyrase subunit B, 4 nM.

For the compound `C[C@H]1COc2c(N3CCN(C)CC3)c(F)cc3c(=O)c(C(=O)O)cn1c23` [LEVOFLOXACIN], the MIC is 3.13 µM (≈ 1.13 µg/mL) against Streptococcus pneumoniae, 0.78 µM (≈ 0.282 µg/mL) with Staphylococcus aureus [1] and greater than 25 µM with Staphylococcus aureus [4].

For the compound `O=C(O)c1cncc(-c2cnc3[nH]c(C(=O)NC4CC4)cc3c2-n2ccc(C(F)(F)F)n2)c1`, the MIC against Streptococcus pneumoniae was 25 µM (≈ 11.4 µg/mL); in the data set with Staphylococcus aureus [1] it was greater than 25 µM. Also, the IC50 in data set [2] was determined as 6 nM; against DNA gyrase subunit B it was 39 nM. For the same compound, the logD in data set [3] is -0.98. In addition, the Ratio IC50 in data set [5] is greater than 3.

As for `CC(C)NC(=O)c1cc2c(-n3ccc(C(F)(F)F)n3)c(-c3cncc(C(=O)O)c3)cnc2[nH]1`, the MIC in the data set on Streptococcus pneumoniae and in the data set with Staphylococcus aureus [1] was greater than 25 µM throughout. In addition, the IC50 in data set [2] turned out to be 44 nM; against DNA gyrase subunit B, 147 nM. The logD in data set [3] was -0.62.

For the compound `CCNC(=O)c1cc2c(-n3nc(C(F)(F)F)cc3C)c(-c3cncc(C(=O)O)c3)cnc2[nH]1`, the MIC in the data set on Streptococcus pneumoniae was 12.5 µM (≈ 5.73 µg/mL); in the data set with Staphylococcus aureus [1] it was greater than 25 µM. Also, the figures for the IC50 (in data set [2]; against DNA gyrase subunit B) were 65 nM and 133 nM, respectively. The same compound had a logD in data set [3] of -0.88.

Regarding `CCCNC(=O)c1cc2c(-n3ccc(C(F)(F)F)n3)c(-c3cncc(C(=O)O)c3)cnc2[nH]1`, the MIC against Streptococcus pneumoniae and in the data set on Staphylococcus aureus [1] was greater than 25 µM throughout. Besides, the IC50 worked out at 45 nM in data set [2] and 58 nM against DNA gyrase subunit B. In data set [3], this compound registered a logD of -0.79.

Consider `CCNC(=O)c1cc2c(-n3ccc(C(F)(F)F)n3)c(-c3cc(-c4n[nH]c(=O)o4)cnc3OC)cnc2[nH]1`, for which the results for the MIC against Streptococcus pneumoniae, against Staphylococcus aureus [1] and against Staphylococcus aureus [4] were less than 0.02 µM, 0.098 µM (≈ 0.0504 µg/mL) and 0.2 µM (≈ 0.103 µg/mL), respectively. For the same compound, the IC50 in data set [2] is 3 nM; against DNA gyrase subunit B, 2 nM. In data set [3], this compound registered a logD of 2.91.

Take `CCNC(=O)c1cc2c(-n3ccc(C(F)(F)F)n3)c(-c3cncc(C(N)=O)c3)cnc2[nH]1`: the minimal inhibitory concentration (MIC) in the data set with Streptococcus pneumoniae was 0.2 µM (≈ 0.0887 µg/mL); against Staphylococcus aureus [1], 25 µM (≈ 11.1 µg/mL); in the data set on Staphylococcus aureus [4], greater than 25 µM.

On to `CCNC(=O)c1cc2c(-n3ccc(C(F)(F)F)n3)c(-c3cncc(C(=O)O)c3)cnc2[nH]1`, for which the figures for the minimal inhibitory concentration (MIC) with Streptococcus pneumoniae and in the data set on Staphylococcus aureus [1] were 6.25 µM (≈ 2.78 µg/mL) and greater than 25 µM, respectively. Further, the logD in data set [3] was -0.99.

The values above are taken from ChEMBL document CHEMBL2057070, “Discovery of a novel azaindole class of antibacterial agents targeting the ATPase domains of DNA gyrase and Topoisomerase IV” (Bioorg Med Chem Lett, 2012).
